Data as given in a melting point compilation (Tetko et al.; mined from patent text by program, amines drawn as free bases though some values may be those of a salt).

melting point [°C] | SMILES
198 | Cc1ccc2c(N=[N+]=[N-])c(C(=O)O)cnc2n1
> 280 | CNc1c(F)cc2c(=O)c(C(=O)O)cn(-c3ccc(F)c(O)c3)c2c1Cl
258 to 260 | COc1ccc2c(ccc3c4cc5c(cc4nnc23)OCO5)c1
136 to 139 | Cc1nc(NC(=O)CC2CC2)sc1C(=O)NCc1ccccc1
130 to 131 | CN(C)C(=O)C=CC(=O)N(C)C
223 | COc1ccccc1-c1nc(N)c(C#N)nc1-c1ccc(=O)n(C(C)C)c1
154 to 156 | CC(=NC(C#N)=C(N)C#N)c1ccc(Cl)cc1
153 to 155 | CC(C)C(CS(=O)(=O)c1ccc(-c2cccc(CNC(=O)c3nc4ccccc4c(=O)[nH]3)c2)cc1)N(O)C=O (stereo unspecified)
75 to 76 | O=C(O)CCCOc1ccccc1OCc1ccccc1
99 to 101 | CCc1nc(C#N)c(N2CCN(c3ccccc3)CC2)nc1C
90 | COc1ccc(N(CCC(=O)O)C(=O)Cl)cc1
258 to 260 | Cc1cc(I)ccc1Nc1c(-c2nnc(N)o2)cc2c(ncn2C)c1F
233 to 235 | Oc1ccc(-c2c(Cl)c3cc(O)ccc3n2Cc2ccc(OCCN3CCCC3)cc2)cc1
143 to 145 | CSc1ccc(C(=O)Nc2ccccc2)cc1N
154 to 158 | N#Cc1ccc(C(=O)O)c(Cl)c1
167 to 170 | COCn1c(-c2nc3c(OC)ccc(N4CCOCC4)c3s2)nc2ccc(Cl)nc21
128 to 129 | CCOC(=O)C1=CC(c2cccc(C(F)(F)F)c2)=NN(C(=O)OCC)C1N1CCOCC1 (stereo unspecified)
91 to 96 | COCCN1CCc2ccc(Nc3ncc(Cl)c(Nc4ccc(N5CCOCC5)cc4OCCC#N)n3)cc2CC1
120 to 122 | COc1cccc2c1CCC(C#N)C2=O (stereo unspecified)
77 | CCSc1cccc(OC(F)(F)F)c1S(=O)(=O)NC(C)(C)C
191 to 194 | Cc1cccc2ncc(C(=O)NCC(C)(C)C)c(=O)n12
205 to 208 | CC(=O)c1c(C)[nH]c(-c2ccc(Cl)cc2)c1N
112 to 113 | CC(C)CCCC(C)C1CCC2C3CC=C4CC(OCCC#CCCOC(c5ccccc5)(c5ccccc5)c5ccccc5)CCC4(C)C3CCC12C (stereo unspecified)
148 to 150 | Cc1nc(-c2ccc(Cl)cc2C(=O)c2ccccc2)n[nH]1

melting point [°C] | SMILES
265 to 270 | Cc1ccc(C(=O)NC(=O)Nc2cc3c(cc2F)/C(=C/c2[nH]c(C)c(CCC(=O)O)c2C)C(=O)N3)cc1
232 to 235 | Nc1nc(-n2cc(C(=O)O)c(=O)c3cc(F)c(F)c(Cl)c32)ccc1F
248 | Cc1nc(Cl)c2c(c1O)COC2C (stereo unspecified)
126 to 127 | CCNc1nc(C#N)c(C#N)nc1-c1cccc(F)c1
339 to 342 | O=C(c1c[nH]c(=O)[nH]1)c1cccs1
161 to 163 | O=C(C=Cc1ccc2ccccc2c1)NCCCCCC(=O)NO
84 to 85 | CCOC(=O)C(=O)CC(=O)/C=C/c1ccc(Cl)cc1F
149 to 150 | Cc1ccc(-c2cc[nH]c2C=O)cc1
68 to 70 | CC(n1ncnn1)C(F)(c1ccc(OC(F)(F)F)cc1)c1ccc(OC(F)(F)F)cc1 (stereo unspecified)
134 to 135 | O=C(O)[C@H](Cc1cccc(OC(F)(F)C(F)F)c1)[C@@H](O)c1ccnc(F)c1 (racemic)
160 | CNC(=O)Nc1ccc(Oc2cccc(C(F)(F)F)c2)c(Cl)c1
258 to 260 | N#Cc1c(-c2oc3ccccc3c2Cl)[nH]c(Cl)c1Cl
284 to 287 | O=c1[nH]c2cc(Cl)ccc2c(=O)cc1NCCc1ccccc1
114 to 116 | CCOC(=O)c1c(Cn2cncn2)nc2ccc(Cl)cc2c1-c1ccccc1
140 to 144 | COC(=O)CCCc1cc2nc(Cl)ccc2n1S(=O)(=O)c1cccc(-c2ccnc(C)n2)c1
120 to 121 | CNC(=S)NCCCSc1ncccn1
155 to 156 | CCOC(=O)C(O)c1ccccc1Nc1c(Cl)cccc1Cl (stereo unspecified)
219 | CSc1ccc(-c2n[nH]c(=S)cc2-c2ccc(F)cc2)cc1
> 260 | Cn1c(-c2ccc(Cl)cc2)cc2cc(C(=O)O)ccc21
77 to 79 | CCN(c1nc(C)cc(C(=O)c2ccc3[nH]ccc3c2)n1)c1ccc(C(C)C)cc1Br
332 to 336 | CC1(C)C(=O)Nc2cc3[nH]c(-c4cccs4)nc3cc21
142 | CCOC(=O)c1c(C)n(-c2ccccc2)c(C)c(C(=O)OCc2ccccc2)c1=O
107 to 110 | COc1c(C)c(C)c(OC)c(N)c1N
97 | CCOC(=O)c1cc(C)cc([N+](=O)[O-])c1O

melting point [°C] | SMILES
192 to 195 | CC(C)(C)C(=O)Oc1ccc(S(=O)(=O)c2ccc(S(N)(=O)=O)s2)cc1
208 to 210 | Cc1nc(NC(=O)NS(=O)(=O)c2ccccc2OC(Cl)=CCl)nc2c1CCO2
144 to 146 | CCCCc1nn(-c2ccccc2C(F)(F)F)c(=O)n1Cc1ccc(-c2ccccc2S(=O)(=O)NC(=O)C(c2ccccc2)c2ccccc2)cc1
155 to 158 | O=S(=O)(CCO)Nc1cc(C(c2cc(F)ccc2F)S(=O)(=O)c2ccc(Cl)cc2)c(Cl)cn1 (stereo unspecified)
229 to 230 | O=C1CC(c2ccccc2)CC(=O)N1c1ccncc1
149 to 151 | Oc1ccc(-c2ncnc(C(F)(F)F)c2Cl)cc1
186 to 187 | O=C1COc2ccc(CO)cc2N1
118 to 121 | c1cc(-n2cnnn2)ccc1SCN1CCOCC1
109 to 110 | COc1ccc(C(=O)O)c(OC(C)C)c1Br
243 to 244 | CCCCc1ncc(C=C(Cc2cccs2)C(=O)O)n1Cc1cccc(C(=O)O)c1
126 to 127 | CCC(=O)c1ccc(-c2ncccc2S(=O)(=O)Nc2ncc(C)nc2OC)cc1
210 | CC(=O)Nc1snc(C)c1[N+](=O)[O-]
203 | CCc1nc2cc(C(F)(F)F)c(Cl)cc2n1-c1ccc(CCOC(=O)NS(=O)(=O)c2cccc3c(N(C)C)cccc23)cc1
179 to 182 | COc1ccc(C(Cc2ccncc2)c2ccc(CO)cc2)cc1OC1CCCC1 (stereo unspecified)
142 to 144 | Cc1oc(-c2ccccc2)nc1CCOc1ccc(CCC(=O)O)cc1
164 | Cc1noc(NS(=O)(=O)c2ccc(-c3cc4ccccc4s3)s2)c1Br
179 to 180 | Cc1c(F)cc(C(=O)O)c(Cl)c1Cl
80 to 82 | COc1c(OCC(F)(F)F)ccnc1CSc1nc2ccc(C(F)(F)F)cc2[nH]1
190 to 192 | CCCCN(CCCC)c1ccc(C=CC=CC2=C(C#N)C(=C(C#N)C#N)OC2(c2ccccc2)C(F)(F)F)c(OC)c1 (stereo unspecified)
208 to 209 | COc1ccc(-c2nc(N3CCN(C)CC3)c3c(C)c(C#N)sc3n2)cc1OC
> 360 | O=c1c2c(c1=O)Nc1c(cc(Cl)c(Cl)c1Cl)N2
324 to 328 | O=c1[nH]c2ncccc2c(=O)n1CCCCCCn1c(=O)[nH]c2ncccc2c1=O
148 to 153 | CO[C@@H]1C=C2C=C3C(=C(C)C(=O)N3C)C[C@]2(C)[C@@H](C)[C@H]1OC(=O)c1cccs1
135 to 137 | CCc1noc(CC(O)c2ccccc2)c1C(=O)NC (stereo unspecified)

melting point [°C] | SMILES
278 | Cc1nc(C)c(-c2[nH]nc3c2C(=O)c2c(NC(=O)NN4CCN(C)CC4)cccc2-3)s1
103 to 105 | Cc1oc(-c2ccccc2)nc1COc1ccc(C=O)cc1
93 to 98 | Brc1cccc2c1SSSSS2
149 to 151 | O=C(O)c1cc(-c2ncc(C(F)(F)F)cc2Cl)ccc1Cl
170 to 172 | Cn1cccc1C(=O)C(C#N)C(=O)Nc1ccccc1 (stereo unspecified)
190 to 191 | CCNc1nc2c(C)sc(C(=O)OC)c2n1Cc1ccc(-c2ccccc2C#N)cc1
125 to 128 | CN(C1CCN(C2CC2)CC1)S(=O)(=O)c1ccc(Nc2nccc(Nc3ccc(F)cc3)n2)cc1
94 to 95 | Brc1cncc2nc(SCc3ccccc3)nn12
142 | CCCCCC(C)(C)NC(=O)CN1C(=O)c2ccccc2C1=O
290 to 292 | Cc1cccc2c(=O)n(C3CCC(=O)NC3=O)cnc12 (stereo unspecified)
> 350 | Nc1nc(O)c2cc(CN(CCF)c3ccc(C(=O)N[C@@H](CCC(=O)O)C(=O)O)cc3)ccc2n1
125 to 128 | COc1ccc(-c2nc(CCl)cs2)cc1
154 | O=c1[nH]c2ccccc2n1CC1CCCN(CC(O)C2COc3ccccc3O2)C1 (stereo unspecified)
114 | O=C(CCC(=O)N1CCCCC1c1ccccc1)c1ccc2c(c1)CCNCC2 (stereo unspecified)
140 | Cc1ccc(C(=O)Nc2cn(C3CCCCO3)nc2C(=O)NCCO)cn1 (stereo unspecified)
208 to 209 | COc1ccc(CNc2nnc(Cl)c3cc(Cl)c(Cl)cc23)cc1Cl
157 to 159 | CC[C@H](C1CC1)n1cc(Cl)nc(N2CCc3cc(Cl)cc(Cl)c32)c1=O
146 | COC(=O)Cc1n[nH]c2ccccc12
242 to 244 | N[C@H](Cc1ccc2ccccc2c1)C(=O)O
> 250 | CC(C)(C)c1cc(C2=NC(=S)N=N2)cc(C(C)(C)C)c1O
121 to 124 | CCCc1c(O)c(C(C)=O)cc(Cl)c1OCCCOc1ccc2ccc(OCC(=O)OC)cc2c1C(C)=O

SMILES | melting point [°C]
COc1ccccc1N1CCN(CCCO)CC1 | 88 to 89
CN(C)C1(c2ccccc2)CCC(CNC(=O)CCCCCc2c[nH]c3ccc(F)cc23)CC1 (stereo unspecified) | 52 to 54
COc1ccc(Cn2c(C)c(C=O)c3cnnc(OCc4ccccc4)c32)cc1 | 139 to 145
Cc1nc2ccccc2c(=O)n1-c1nnn[nH]1 | 225 to 226
Cc1sc2c(c1C)C(c1ccc(Cl)cc1)=NC(CC(=O)NCc1cccnc1)c1nnc(C)n1-2 (stereo unspecified) | 180 to 183
CCOc1c(C(=O)NC2CN3CCC2CC3)cc(Cl)c2c1CCCN2 (stereo unspecified) | 160
C[N+]1([O-])C(=O)C(F)N=C(c2ccccc2)c2cc(Cl)ccc21 (stereo unspecified) | 167 to 169
CC(NC(=O)CN1CCCC1=O)C(=O)N1CC(=O)NC1(C)C (stereo unspecified) | 198 to 200
